Reference: patent US11980612B2, “Synergistic anti-inflammatory compositions” (The Procter & Gamble Company, priority 2020, dated 2024)
Several values for one entry are separate records, joined by “and”; a condition that tells them apart may be missing. Identical values can stand only once.

How the values were obtained:
[1] = test system: PGE2 release from TERT keratinocytes (tKC); assay: PGE2 assay: inhibition of PGE2 release from UVB-stressed TERT keratinocytes, normalized to ATP; format: cell-based, human; details: PO 1 × 10−7 w/v %, actives alone or combination (observed), 15 mJ/cm2 UVB, 18-24 hours
From the text: Inhibiting the Cell's Inflammation Response to a Stressor-Prostaglandin E2 (“PGE2”) Assay.
PGE2 is a hormone-like substance that is known to participate in modulation of inflammation. Cellular inflammation is associated with a variety of hair, skin and scalp conditions, and thus inhibiting PGE2 activation vis-à-vis cellular inflammation may help treat these types of hair, skin and scalp conditions.
TERT keratinocytes (“tKC” are human keratinocytes which have been transfected with the human telomerase reverse transcriptase gene to immortalize the cells) were obtained from Jerry Shay, University of Texas, Southwestern and plated at 40,000 cells/well into 24-well plates in 1 ml/well volume. EpiLife Medium (Life Technologies cat #MEPICFPRF500) supplemented with keratinocyte growth supplement (Life technologies cat #S-001-5) was used as the assay media. The cells were grown to confluence/near confluence, (typically 24 hours after plating 40,000 cells/well in 24 well plate) and then subjected to 15 mJ/cm^2 UVB-stress (typically […] in BioSun). The test compositions (strobilurins, piroctone olamine, strobilurins+piroctone olamine, and positive control 10 uM idebenone) were added to replace the medium (EpiLife Medium with 0.1% final concentration of DMSO—briefly, 1000× stocks of actives and combinations made in 100% DMSO and diluted into Epilife media 1 to 1000), and the plates were incubated for 18-24 hours.
The supernatant is removed from each well, and the cells are rinsed with 2 ml/well medium (without supplements). A Cell Titer-Glo assay (Promega cat #G7571; Madison WI) is used to measure ATP activity, is conducted on the cells for normalization. The supernatant is tested in a PGE2 assay (Prostaglandin E2 Assay kit from Cisbio Bioassays cat #62P2APEB) according to the manufacturer's instructions. The PGE2 results are normalized to ATP activity. The PGE2 quantitation (pg/mL) from the supernatant is divided by the normalization factor (treatment ATP/control ATP).
Example Calculation to Compute PGE2 Inhibition by Strobilurin: • Luminescence of vehicle control in ATP assay=704567 • Luminescence of strobilurin treatment in ATP assay=678903 • Normalization factor for strobilurin treatment=1.038 • PGE2 quantitation for vehicle control=2458 pg/mL PGE2 • PGE2 quantitation for strobilurin treatment=2347 pg/mL PGE2 • Normalized PGE2 values • control=2458/1=2458 • strobilurin=2347/1.038=2261 • % inhibition for strobilurin=[100×(2458−[…])/2458]=8%
Student's T-Test (equal variance, 2 sided) are used to calculate p-values between observed combinations and expected combinations with p-value<0.05 considered statistically significant. Expected combination values are calculated by adding the PGE2 inhibition values of strobilurins alone and piroctone olamine alone. Synergy factor is simply the ratio of observed combination/expected combination. Synergy factors greater than 1.0 with a p-value<0.05 are deemed synergistic.

[2] = general statement, no method; cited from earlier work
[3] = strobilurin 1 × 10−7 w/v %, strobilurin:PO ratio 1:1
[4] = strobilurin 1 × 10−8 w/v %, strobilurin:PO ratio 1:10
[5] = strobilurin 1 × 10−9 w/v %, strobilurin:PO ratio 1:50
[6] = strobilurin 4 × 10−7 w/v %, strobilurin:PO ratio 4:1

SMILES	% PGE2 Inhibition [1, 3]	% PGE2 Inhibition [1, 4]	% PGE2 Inhibition [1, 5]	% PGE2 Inhibition [1, 6]	solubility in water [2]
CO/N=C(/C1=NOCCO1)c1ccccc1Oc1ncnc(Oc2ccccc2Cl)c1F [fluoxastrobin]	5.6%	3.3%	1%	8.6%	–
CO/C=C(/C(=O)OC)c1ccccc1Oc1cc(Oc2ccccc2C#N)ncn1 [azoxystrobin]	8%	1%	1%	13%	low solubility in water
CO/C=C(/C(=O)OC)c1ccccc1COc1cccc(C(F)(F)F)n1 [picoxystrobin]	2.5%	8.4%	8.9%	16.7%	–
Cc1cc(CC(C)CC(C)(C)C)n(O)c(=O)c1.NCCO (stereo not drawn) [PO, piroctone olamine]	3.2%	2.6%	2.4%	2.8% and 2.2%	–
CNC(=O)/C(=N/OC)c1ccccc1CO/N=C(C)/C(=N/OC)C(/C)=N/OC [orysastrobin]	8.2%	15.6%	1.1%	4.7%	–
CO/N=C(/C(=O)OC)c1ccccc1COc1ccccc1C [kresoxim methyl]	4.1%	7.3%	3.2%	6.7%	–
CNC(=O)/C(=N/OC)c1ccccc1COc1cc(C)ccc1C [dimoxystrobin]	18.9%	7.6%	4.1%	12.4%	–
CON=C(C(=O)OC)c1ccccc1CON=C(C)c1cccc(C(F)(F)F)c1 [trifloxystrobin]	3.2%	0.5%	0.7%	8.3%	–
